Experimental data published in patent US20230263822A1, “MODULATION OF FACTOR 11 EXPRESSION” (Ionis Pharmaceuticals, Inc., priority 2008, published 2023).
Strand notation (5' to 3'): a small letter for the sugar, then the base; units joined by * are phosphorothioate-linked, units joined directly phosphodiester-linked; [ ] holds rarer units or linkages, { } end groups; capitals alone tell only the bases. e = 2'-O-(2-methoxyethyl) (MOE); [5mC] = 5-methylcytosine; d = 2'-deoxy (DNA)

Columns and labels:
human Factor 11 mRNA = experiment: Dose-dependent inhibition of human Factor 11 in HepG2 cells, electroporation 123.46-10,000 nM (Example 31); format: cell-based; conditions: for Percent inhibition of Factor 11 mRNA at 123.47 nM / Percent inhibition of Factor 11 mRNA at 370.37 nM / IC50: electroporation; for Percent inhibition of Factor 11 mRNA at 123.47 nM / Percent inhibition of Factor 11 mRNA at 370.37 nM / Percent inhibition of Factor 11 mRNA at 1,111.11 nM / Percent inhibition of Factor 11 mRNA at 3,333.33 nM / Percent inhibition of Factor 11 mRNA at 10,000.0 nM: approx. 16 hours, relative to untreated control cells; for Percent inhibition of Factor 11 mRNA at 1,111.11 nM: electroporation, 1,111.11 nM; for Percent inhibition of Factor 11 mRNA at 3,333.33 nM: electroporation, 3,333.33 nM; for Percent inhibition of Factor 11 mRNA at 10,000.0 nM: electroporation, 10,000.0 nM; for IC50: Factor 11 mRNA expression
Method in brief: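 HepG2 cells were electroporated with antisense oligonucleotide at 123.46, 370.37, 1,111.11, 3,333.33 and 10,000 nM and harvested about 16 hours later. Factor 11 mRNA was quantified by qRT-PCR and normalised to total RNA (RIBOGREEN). Inhibition is expressed relative to untreated cells.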

[1] = design: species or system CD1 mice; conditions: mouse, in vivo, sc, 50 mg/kg
Experimental: The concentration of the full-length oligonucleotide was measured. The method used is a modification of previously published methods (Leeds et al., 1996; Geary et al., 1999) which consist of a phenol-chloroform (liquid-liquid) extraction followed by a solid phase extraction. An internal standard (ISIS 355868, a 27-mer 2′-O-methoxyethyl modified phosphorothioate oligonucleotide, […], designated herein as SEQ ID NO: 270) was added prior to extraction. […] The results are presented in Table 85 expressed as μg/g liver tissue.

blood coagulation = experiment: PT and aPTT assay in cynomolgus monkeys (Example 45); format: in vivo; conditions: escalating dose regimen, platelet poor plasma
Experimental: (§1) Groups, each consisting of two male and three female monkeys, were injected subcutaneously with ISIS 416838, ISIS 416850, ISIS 416858, ISIS 416864, or ISIS 417002 in escalating doses. Antisense oligonucleotide was administered to the monkeys at 5 mg/kg three times per a week for week 1; 5 mg/kg twice per week for weeks 2 and 3; 10 mg/kg three times per week for week 4; 10 mg/kg twice per week for weeks 5 and 6; 25 mg/kg three times per week for week 7; and 25 mg/kg twice per week for weeks 8, 9, 10, 11, and 12. One control group, consisting of two male and three female monkeys, was injected subcutaneously with PBS according to the same dosing regimen. An additional experimental group, consisting of two male and three female monkeys, was injected subcutaneously with ISIS 416850 in a chronic, lower dose regimen. Antisense oligonucleotide was administered to the monkeys at 5 mg/kg three times per week for week 1; 5 mg/kg twice per week for week 2 and 3; 10 mg/kg three times per week for week 4; and 10 mg/kg twice per week for weeks 5 to 12. Body weights were measured weekly. Blood samples were collected 14 days and 5 days before the start of treatment and subsequently once per week for Factor 11 protein activity analysis in plasma, fibrinogen measurement, PT and aPTT measurements, bleeding times, and measurement of various hematologic factors. On day 85, the monkeys were euthanized by exsanguination while under deep anesthesia, and organs harvested for further analysis.
Blood samples were collected in tubes containing sodium citrate. PT and aPTT were determined in duplicate with an ACL 9000 coagulation instrument (Instrumentation Laboratory, Italy). The results were interpolated on a standard curve of serial dilutions citrated control monkey plasma tested to give a reported result in percent normal.
Prothrombin Time (PT) and Activated Partial Thromboplastin Time (aPTT) were measured using platelet poor plasma (PPP) from monkeys treated with ISIS oligonucleotides. PT and aPTT values are provided in Tables 116 and 117 and are reported as International Normalized Ratio (INR) values. INR values for PT and aPTT were determined by dividing the PT or aPTT value for each experimental group by the PT or aPTT for the PBS treated group. This ratio was then raised to the power of the International Sensitivity Index (ISI) of the tissue factor used. The ISIS oligonucleotide, ISIS 416850, given with the chronic dose regimen is distinguished from the other oligonucleotides with an asterisk (*).

fibrinogen = experiment: Fibrinogen assay (Example 45); format: in vivo, cynomolgus monkeys; conditions: plasma, escalating dose regimen
Experimental: as §1
Nine parts of fresh monkey plasma was collected into one part of trisodium citrate. The samples were evaluated of fibrinogen content using an ACL 9000 coagulation instrument (Instrumentation Laboratory, Italy). The ISIS oligonucleotide, ISIS 416850, given with the chronic dose regimen is distinguished from the other oligonucleotides with an asterisk (*).

[2] = mouse, in vivo
Experimental: A control group of five mice was injected subcutaneously with PBS for 2 weeks. All experimental groups (i.e. ASO treated mice at 2, 4, 6 weeks) were compared to the control group (i.e. PBS, 2 weeks).
Blood obtained from all mice groups were sent to Antech Diagnostics for hematocrit (HCT), mean corpuscular volume (MCV), mean corpuscular hemoglobin (MCH), and mean corpuscular hemoglobin concentration (MCHC) measurements and analyses, as well as measurements of the various blood cells, such as WBC (neutrophils, lymphocytes, and monocytes), RBC, and platelets, and total hemoglobin content.

For “416856 (antisense GGCATTGGTGCACAGTTTCT; 5-10-5 gapmer, further chemistry not given here) [compound 416856]”, the “Percent inhibition of Factor 11 mRNA at 123.47 nM” value (“Percent inhibition … at 123.47 nM” below) (human Factor 11 mRNA) was 12%, the “Percent inhibition of Factor 11 mRNA at 370.37 nM” value (“Percent inhibition … at 370.37 nM” below) (human Factor 11 mRNA) was 23% and the “Percent inhibition of Factor 11 mRNA at 1,111.11 nM” value (“Percent inhibition … at 1,111.11 nM” below) (human Factor 11 mRNA) was 35%. For the same substance, the “Percent inhibition of Factor 11 mRNA at 3,333.33 nM” value (from here on “Percent inhibition … at 3,333.33 nM”) (human Factor 11 mRNA) was 59%, the “Percent inhibition of Factor 11 mRNA at 10,000.0 nM” value (shortened to “Percent inhibition … at 10,000.0 nM”) (human Factor 11 mRNA) was 83% and the IC50 (human Factor 11 mRNA) was 1600 nM. For the same substance, the “Half-Life in the liver” value [1] was 19.2 days.

For “416858 (antisense ACGGCATTGGTGCACAGTTT; 5-10-5 gapmer, further chemistry not given here) [compound 416858]”, the “Percent inhibition … at 123.47 nM” value (human Factor 11 mRNA) was 0%, the “Percent inhibition … at 370.37 nM” value (human Factor 11 mRNA) was 27% and the “Percent inhibition … at 1,111.11 nM” value (human Factor 11 mRNA) was 36%. For the same substance, the “Percent inhibition … at 3,333.33 nM” value (human Factor 11 mRNA) was 64%, the “Percent inhibition … at 10,000.0 nM” value (human Factor 11 mRNA) was 70% and the IC50 (human Factor 11 mRNA) was 2200 nM.

With “445522 (antisense eG*e[5mC]*eA*e[5mC]*eA*dG*dT*dT*dT*d[5mC]*dT*dG*dG*e[5mC]*eA*eG*eG*e[5mC]) [compound 445522]” the “Percent inhibition … at 123.47 nM” value (human Factor 11 mRNA) was 0%, the “Percent inhibition … at 370.37 nM” value (human Factor 11 mRNA) was 0% and the “Percent inhibition … at 1,111.11 nM” value (human Factor 11 mRNA) was 44%. For the same substance, the “Percent inhibition … at 3,333.33 nM” value (human Factor 11 mRNA) was 63%, the “Percent inhibition … at 10,000.0 nM” value (human Factor 11 mRNA) was 74% and the IC50 (human Factor 11 mRNA) was 2900 nM.

For “445531 (antisense eG*eG*e[5mC]*eA*eT*dT*dG*dG*dT*dG*d[5mC]*dA*d[5mC]*eA*eG*eT*eT*eT) [compound 445531]”, the “Percent inhibition … at 123.47 nM” value (human Factor 11 mRNA) was 8%, the “Percent inhibition … at 370.37 nM” value (human Factor 11 mRNA) was 16% and the “Percent inhibition … at 1,111.11 nM” value (human Factor 11 mRNA) was 52%. For the same substance, the “Percent inhibition … at 3,333.33 nM” value (human Factor 11 mRNA) was 61%, the “Percent inhibition … at 10,000.0 nM” value (human Factor 11 mRNA) was 77% and the IC50 (human Factor 11 mRNA) was 1800 nM.

With “ISIS 416838: MOE gapmer, nucleobases 1018 to 1042 of SEQ ID NO: 1 (Table 6) (antisense GCAACCGGGATGATGAGTGC; MOE gapmer, wing and gap sizes not given here)” the “PT ratio (INR)” value (blood coagulation; day 8) was 1.03, the “aPTT ratio (INR)” value (blood coagulation; day 8) was 1.07 and the “PT ratio (INR)” value (blood coagulation; day 15) was 1.03. The “aPTT ratio (INR)” value (blood coagulation; day 15) was 1.05, the “PT ratio (INR)” value (blood coagulation; day 22) was 1.07 and the “aPTT ratio (INR)” value (blood coagulation; day 22) was 1.20. For the same substance, the “PT ratio (INR)” value (blood coagulation; day 29) was 1.03, the “aPTT ratio (INR)” value (blood coagulation; day 29) was 1.19 and the “PT ratio (INR)” value (blood coagulation; day 36) was 1.05. For the same substance, the “aPTT ratio (INR)” value (blood coagulation; day 36) was 1.20, the “PT ratio (INR)” value (blood coagulation; day 43) was 1.03 and the “aPTT ratio (INR)” value (blood coagulation; day 43) was 1.18. For the same substance, the “PT ratio (INR)” value (blood coagulation; day 50) was 1.02, the “aPTT ratio (INR)” value (blood coagulation; day 50) was 1.25 and the “PT ratio (INR)” value (blood coagulation; day 57) was 1.04. The “aPTT ratio (INR)” value (blood coagulation; day 57) was 1.21, the “PT ratio (INR)” value (blood coagulation; day 64) was 1.04 and the “aPTT ratio (INR)” value (blood coagulation; day 64) was 1.18. For the same substance, the “PT ratio (INR)” value (blood coagulation; day 71) was 1.02, the “aPTT ratio (INR)” value (blood coagulation; day 71) was 1.15 and the “PT ratio (INR)” value (blood coagulation; day 78) was 1.04. The “aPTT ratio (INR)” value (blood coagulation; day 78) was 1.19, the “PT ratio (INR)” value (blood coagulation; day 85) was 1.05 and the “aPTT ratio (INR)” value (blood coagulation; day 85) was 1.22. For the same substance, the “PT ratio (INR)” value (blood coagulation; day −5) was 1.00, the “aPTT ratio (INR)” value (blood coagulation; day −5) was 1.00 and the “PT ratio (INR)” value (blood coagulation; day −14) was 1.00. The “aPTT ratio (INR)” value (blood coagulation; day −14) was 1.00, the fibrinogen levels (fibrinogen; day 8) was 209 mg/dL and the fibrinogen levels (fibrinogen; day 15) was 198 mg/dL. The fibrinogen levels (fibrinogen; day 22) was 183 mg/dL, the fibrinogen levels (fibrinogen; day 29) was 184 mg/dL and the fibrinogen levels (fibrinogen; day 36) was 182 mg/dL. It also gave a fibrinogen levels (fibrinogen; day 43) of 186 mg/dL, a fibrinogen levels (fibrinogen; day 50) of 216 mg/dL and a fibrinogen levels (fibrinogen; day 57) of 190 mg/dL. For the same substance, the fibrinogen levels (fibrinogen; day 64) was 190 mg/dL, the fibrinogen levels (fibrinogen; day 71) was 199 mg/dL and the fibrinogen levels (fibrinogen; day 78) was 189 mg/dL. The fibrinogen levels (fibrinogen; day 85) was 196 mg/dL, the fibrinogen levels (fibrinogen; day −5) was 205 mg/dL and the fibrinogen levels (fibrinogen; day −14) was 251 mg/dL. The RBC count [2] was 8 cells/pL.

For “ISIS 417002: MOE gapmer, nucleobases 1275 to 1318 of SEQ ID NO: 1 (Table 8) (antisense GGTGCACAGTTTCTGGCAGG; MOE gapmer, wing and gap sizes not given here)”, the “PT ratio (INR)” value (blood coagulation; day 8) was 1.02, the “aPTT ratio (INR)” value (blood coagulation; day 8) was 1.05 and the “PT ratio (INR)” value (blood coagulation; day 15) was 1.04. For the same substance, the “aPTT ratio (INR)” value (blood coagulation; day 15) was 1.03, the “PT ratio (INR)” value (blood coagulation; day 22) was 1.04 and the “aPTT ratio (INR)” value (blood coagulation; day 22) was 1.16. The “PT ratio (INR)” value (blood coagulation; day 29) was 1.01, the “aPTT ratio (INR)” value (blood coagulation; day 29) was 1.11 and the “PT ratio (INR)” value (blood coagulation; day 36) was 1.05. For the same substance, the “aPTT ratio (INR)” value (blood coagulation; day 36) was 1.18, the “PT ratio (INR)” value (blood coagulation; day 43) was 1.03 and the “aPTT ratio (INR)” value (blood coagulation; day 43) was 1.06. For the same substance, the “PT ratio (INR)” value (blood coagulation; day 50) was 0.99, the “aPTT ratio (INR)” value (blood coagulation; day 50) was 1.18 and the “PT ratio (INR)” value (blood coagulation; day 57) was 1.03. For the same substance, the “aPTT ratio (INR)” value (blood coagulation; day 57) was 1.22, the “PT ratio (INR)” value (blood coagulation; day 64) was 1.03 and the “aPTT ratio (INR)” value (blood coagulation; day 64) was 1.11. The “PT ratio (INR)” value (blood coagulation; day 71) was 0.99, the “aPTT ratio (INR)” value (blood coagulation; day 71) was 1.16 and the “PT ratio (INR)” value (blood coagulation; day 78) was 1.02. For the same substance, the “aPTT ratio (INR)” value (blood coagulation; day 78) was 1.18, the “PT ratio (INR)” value (blood coagulation; day 85) was 1.02 and the “aPTT ratio (INR)” value (blood coagulation; day 85) was 1.20. The “PT ratio (INR)” value (blood coagulation; day −5) was 1.00, the “aPTT ratio (INR)” value (blood coagulation; day −5) was 1.00 and the “PT ratio (INR)” value (blood coagulation; day −14) was 1.00. For the same substance, the “aPTT ratio (INR)” value (blood coagulation; day −14) was 1.00, the fibrinogen levels (fibrinogen; day 8) was 221 mg/dL and the fibrinogen levels (fibrinogen; day 15) was 195 mg/dL. For the same substance, the fibrinogen levels (fibrinogen; day 22) was 199 mg/dL, the fibrinogen levels (fibrinogen; day 29) was 199 mg/dL and the fibrinogen levels (fibrinogen; day 36) was 191 mg/dL. The fibrinogen levels (fibrinogen; day 43) was 187 mg/dL, the fibrinogen levels (fibrinogen; day 50) was 236 mg/dL and the fibrinogen levels (fibrinogen; day 57) was 201 mg/dL. It also gave a fibrinogen levels (fibrinogen; day 64) of 236 mg/dL, a fibrinogen levels (fibrinogen; day 71) of 228 mg/dL and a fibrinogen levels (fibrinogen; day 78) of 221 mg/dL. For the same substance, the fibrinogen levels (fibrinogen; day 85) was 224 mg/dL, the fibrinogen levels (fibrinogen; day −5) was 222 mg/dL and the fibrinogen levels (fibrinogen; day −14) was 291 mg/dL.
